From patent publication US20250151727A1, “(S)-ABSCISIC ACID FOR REDUCING FRUIT DROP” (Valent BioSciences LLC, priority 2023, published 2025)

Tests used:
Format in all cases: in vivo
[1] = system: 'Midknight Valencia' sweet orange trees; test: Fruit drop after foliar spray, 'Midknight Valencia' sweet orange, Porterville (Example 1); conditions: for # Fruit per Tree / % Change in # Fruit per Tree: ProTone SG, 28 days after 100% petal drop; for % Change in # Fruit per Tree: vs untreated control
Procedure: ProTone™ SG was applied to mature ‘Midknight Valencia’ sweet orange trees in a commercial orchard near Porterville (33°08′37.54″S, 18°59′35.90″E) in the Western Cape Province of South Africa. The experiment consisted of a completely randomized design and consisted of 10 single-tree replicates. S-ABA was applied as a foliar spray at 75, 150 and 300 parts per million (“ppm”) and compared to an untreated control (only water) at 2 liters per tree. All treatments were applied with a non-ionic wetting agent (Villa 51® having the active ingredient isotridecanol and available from Villa Crop Protection (Pty) Ltd) at a rate of 6 milliliters per 100 liters of water. Treatments were applied 28 days after 100% petal drop on 31 Oct. 2019. See Results in Table 1, below.

[2] = system: 'Orri' mandarin trees; test: Fruit drop after foliar spray, 'Orri' mandarin, Piketberg, open and shade-netted orchards (Example 2); conditions: 150 ppm; for # Fruit per Tree / % Change in # Fruit per Tree: ProTone SG, 28 days after 100% petal drop
Procedure: ProTone™ SG was applied to mature ‘Orri’ mandarin trees in a commercial orchard near Piketberg (33°04′46.3″S 18°50′04.7″E) in the Western Cape Province of South Africa. Two trials were conducted, one in an orchard covered with permanent shade netting, and the other in an open orchard. The experiment consisted of 5 trees per plot for each of covered and open orchard. S-ABA was applied as a foliar spray at 150 ppm and compared to an untreated control at 3.4 liters per tree for the covered orchard and 2.8 liters per tree for the open orchard. All treatments were applied with Villa 51® at a rate of 6 milliliters per 100 liters of water. Treatments were applied 28 days after 100% petal drop on 29 Nov. 2021. See Results in Table 2, below.

[3] = system: 'Nadorcott' mandarin trees; test: Fruit drop after foliar spray, 'Nadorcott' mandarin, Piketberg (Example 3); conditions: for # Fruit per Tree / % Change in # Fruit per Tree: 28 days after 100% petal drop; for % Change in # Fruit per Tree: vs untreated control
Procedure: ProTone™ SG or Excelero™ SL was applied to mature ‘Nadorcott’ mandarin trees in a commercial orchard near Piketberg (33°04′46.3″S 18°50′04.7″E) in the Western Cape Province of South Africa. The experiment consisted of 5 trees per plot. S-ABA in the form of ProTone™ SG was applied as a foliar spray at 18.5, 37 and 75 ppm and at 37 ppm in the form of Excelero™ SL and compared to an untreated control at 2.4 liters per tree. All treatments were applied with Villa 51® at a rate of 6 milliliters per 100 liters of water. Treatments were applied 28 days after 100% petal drop on 8 Nov. 2022. See Results in Table 3, below.

[4] = system: 'Nadorcott' mandarin trees; test: Fruit drop, 'Nadorcott' mandarin, Piketberg, all plots with ProGibb (Example 4); conditions: for # Fruit per Tree / % Change in # Fruit per Tree: Excelero SL; for % Change in # Fruit per Tree: vs untreated control
Procedure: Excelero™ SL was applied to mature ‘Nadorcott’ mandarin trees in a commercial orchard near Piketberg (33°04′46.3″S 18°50′04.7″E) in the Western Cape Province of South Africa. The experiment consisted of 5 trees per plot. S-ABA was applied at 50 and 100 ppm in the form of Excelero™ SL and compared to an untreated control at 2.4 liters per tree. All plots received application of ProGibb® at 80% and 100% petal fall. All treatments were applied with Villa 51® at a rate of 6 milliliters per 100 liters of water. Treatments were applied 42 and 56 days after 100% petal drop (“DAP”) on 23 November and […], respectively. See Results in Table 4, below.

[5] = system: 'Leanri' mandarin trees; test: Fruit drop, 'Leanri' mandarin, Ashton, all plots with Falgro and girdling (Example 5); conditions: for # Fruit per Tree / % Change in # Fruit per Tree: 37 ppm, 21 days after 100% petal drop; for % Change in # Fruit per Tree: vs untreated control
Procedure: Excelero™ SL was applied to mature ‘Leanri’ mandarin trees in a commercial orchard near Ashton (33°50′57″S, 20°02′15″E) in the Western Cape Province of South Africa. The experiment consisted of 5 trees per plot. S-ABA was applied at 37 ppm in the form of ProTone™ SG and Excelero™ SL and compared to an untreated control at 2.4 liters per tree. All plots received application of Falgro® at 70% and 90% petal fall and a girdling action. All treatments were applied with Villa 51® at a rate of 6 milliliters per 100 liters of water. Treatments were applied 21 days after 100% petal drop on 8 Nov. 2023. See Results in Table 5, below.

[6] = system: 'Orri' mandarin trees; test: Fruit drop, 'Orri' mandarin, Mpumalanga (Example 6); conditions: for # Fruit per Tree / % Change in # Fruit per Tree: Excelero SL; for % Change in # Fruit per Tree: vs untreated control
Description: Excelero™ SL was applied to mature ‘Orri’ mandarin trees in a commercial orchard near Mpumalanga, South Africa. The experiment consisted of a completely randomized design. S-ABA was applied at 20, 40 and 80 ppm in the form of Excelero™ SL and compared to an untreated control. All treatments were applied with Villa 51® at a rate of 6 milliliters per 100 liters of water. Treatments were applied 14, 21 and 28 days after 100% petal drop (“DAP”). See Results in Table 6, below.

[7] = system: 'Midnight Valencia' sweet orange trees; test: Fruit drop, 'Midnight Valencia' sweet orange, Mpumalanga (Example 7); conditions: for # Fruit per Tree / % Change in # Fruit per Tree: Excelero SL; for % Change in # Fruit per Tree: vs untreated control
Description: Excelero™ SL was applied to mature ‘Midnight Valencia’ sweet orange trees in a commercial orchard near Mpumalanga, South Africa. The experiment consisted of a completely randomized design. S-ABA was applied at 20, 40 and 80 ppm in the form of Excelero™ SL and compared to an untreated control. All treatments were applied with Villa 51® at a rate of 6 milliliters per 100 liters of water. Treatments were applied 14, 21 and 28 days after 100% petal drop (“DAP”). See Results in Table 7, below.

[8] = system: '2PH seedless' lemon trees; test: Fruit drop, '2PH seedless' lemon, Mpumalanga (Example 8); conditions: for # Fruit per Tree / % Change in # Fruit per Tree: Excelero SL; for % Change in # Fruit per Tree: vs untreated control
Description: Excelero™ SL was applied to mature ‘2PH seedless’ lemon trees in a commercial orchard near Mpumalanga, South Africa. The experiment consisted of a completely randomized design. S-ABA was applied at 20, 40 and 80 ppm in the form of Excelero™ SL and compared to an untreated control. All treatments were applied with Villa 51® at a rate of 6 milliliters per 100 liters of water. Treatments were applied 14, 21 and 28 days after 100% petal drop (“DAP”). See Results in Table 8, below.

[9] = 20, 40 and 80 ppm at each of 14, 21 and 28 days after 100% petal drop

## (S)-abscisic acid [S-ABA]
[1]; 75 and 150 ppm
  effect on fruit drop as compared to untreated control: reduced fruit drop
[1]; 75 ppm foliar spray
  # Fruit per Tree: 413
  % Change in # Fruit per Tree: 11%
[1]; 150 ppm foliar spray
  # Fruit per Tree: 444
  % Change in # Fruit per Tree: 20%
[1]; 300 ppm
  effect on fruit drop as compared to untreated control: increasing fruit drop
[1]; 300 ppm foliar spray
  # Fruit per Tree: 351
  % Change in # Fruit per Tree: −5%
[2]
  effect on fruit drop as compared to untreated control: increased fruit drop
[2]; no shade (open orchard)
  # Fruit per Tree: 397
[2]; no shade (open orchard), vs untreated control (no shade)
  % Change in # Fruit per Tree: −28%
[2]; shade (permanent shade netting)
  # Fruit per Tree: 82
[2]; shade (permanent shade netting), vs untreated control (shade)
  % Change in # Fruit per Tree: −78%
[3]; 18.5 ppm, ProTone SG
  # Fruit per Tree: 793
  % Change in # Fruit per Tree: 3%
[3]; 37 and 75 ppm
  effect on fruit drop as compared to untreated control: reduced fruit drop
[3]; 37 ppm, Excelero SL
  # Fruit per Tree: 1010
  % Change in # Fruit per Tree: 32%
[3]; 37 ppm, ProTone SG
  # Fruit per Tree: 841
  % Change in # Fruit per Tree: 10%
[3]; 75 ppm, ProTone SG
  # Fruit per Tree: 909
  % Change in # Fruit per Tree: 18%
[4]; 50 and 100 ppm at both 42 and 56 days after 100% petal drop
  effect on fruit drop as compared to untreated control: reduced fruit drop
[4]; 50 ppm @ 42 DAP
  # Fruit per Tree: 412
  % Change in # Fruit per Tree: 35%
[4]; 50 ppm @ 56 DAP
  # Fruit per Tree: 316
  % Change in # Fruit per Tree: 3%
[4]; 100 ppm @ 42 DAP
  # Fruit per Tree: 387
  % Change in # Fruit per Tree: 26%
[4]; 100 ppm @ 56 DAP
  # Fruit per Tree: 322
  % Change in # Fruit per Tree: 5%
[5]; 37 ppm at 21 days after 100% petal drop
  effect on fruit drop as compared to untreated control: reduced fruit drop
[5]; Excelero SL
  # Fruit per Tree: 430
  % Change in # Fruit per Tree: 28%
[5]; ProTone SG
  # Fruit per Tree: 398
  % Change in # Fruit per Tree: 19%
[6]; [9]
  effect on fruit drop as compared to untreated control: reduced fruit drop
[6]; 20 ppm @ 14 DAP
  # Fruit per Tree: 222
  % Change in # Fruit per Tree: 17%
[6]; 20 ppm @ 21 DAP
  # Fruit per Tree: 257
  % Change in # Fruit per Tree: 36%
[6]; 20 ppm @ 28 DAP
  # Fruit per Tree: 196
  % Change in # Fruit per Tree: 4%
[6]; 40 ppm @ 14 DAP
  # Fruit per Tree: 222
  % Change in # Fruit per Tree: 17%
[6]; 40 ppm @ 21 DAP
  # Fruit per Tree: 234
  % Change in # Fruit per Tree: 24%
[6]; 40 ppm @ 28 DAP
  # Fruit per Tree: 250
  % Change in # Fruit per Tree: 32%
[6]; 80 ppm @ 14 DAP
  # Fruit per Tree: 255
  % Change in # Fruit per Tree: 35%
[6]; 80 ppm @ 21 DAP
  # Fruit per Tree: 213
  % Change in # Fruit per Tree: 13%
[6]; 80 ppm @ 28 DAP
  # Fruit per Tree: 207
  % Change in # Fruit per Tree: 10%
[7]; [9]
  effect on fruit drop as compared to untreated control: reduced fruit drop
[7]; 20 ppm @ 14 DAP
  # Fruit per Tree: 239
  % Change in # Fruit per Tree: 19%
[7]; 20 ppm @ 21 DAP
  # Fruit per Tree: 263
  % Change in # Fruit per Tree: 31%
[7]; 20 ppm @ 28 DAP
  # Fruit per Tree: 245
  % Change in # Fruit per Tree: 22%
[7]; 40 ppm @ 14 DAP
  # Fruit per Tree: 221
  % Change in # Fruit per Tree: 10%
[7]; 40 ppm @ 21 DAP
  # Fruit per Tree: 246
  % Change in # Fruit per Tree: 22%
[7]; 40 ppm @ 28 DAP
  # Fruit per Tree: 230
  % Change in # Fruit per Tree: 14%
[7]; 80 ppm @ 14 DAP
  # Fruit per Tree: 255
  % Change in # Fruit per Tree: 27%
[7]; 80 ppm @ 21 DAP
  # Fruit per Tree: 256
  % Change in # Fruit per Tree: 27%
[7]; 80 ppm @ 28 DAP
  # Fruit per Tree: 285
  % Change in # Fruit per Tree: 42%
[8]; [9]
  effect on fruit drop as compared to untreated control: reduced fruit drop
[8]; 20 ppm @ 14 DAP
  # Fruit per Tree: 107
  % Change in # Fruit per Tree: 23%
[8]; 20 ppm @ 21 DAP
  # Fruit per Tree: 105
  % Change in # Fruit per Tree: 21%
[8]; 20 ppm @ 28 DAP
  # Fruit per Tree: 112
  % Change in # Fruit per Tree: 29%
[8]; 40 ppm @ 14 DAP
  # Fruit per Tree: 114
  % Change in # Fruit per Tree: 31%
[8]; 40 ppm @ 21 DAP
  # Fruit per Tree: 121
  % Change in # Fruit per Tree: 39%
[8]; 40 ppm @ 28 DAP
  # Fruit per Tree: 119
  % Change in # Fruit per Tree: 37%
[8]; 80 ppm @ 14 DAP
  # Fruit per Tree: 109
  % Change in # Fruit per Tree: 25%
[8]; 80 ppm @ 21 DAP
  # Fruit per Tree: 117
  % Change in # Fruit per Tree: 34%
[8]; 80 ppm @ 28 DAP
  # Fruit per Tree: 125
  % Change in # Fruit per Tree: 44%
